These results are taken from ChEMBL document CHEMBL1136912, “Synthesis and in vivo influenza virus-inhibitory effect of ester prodrug of 4-guanidino-7-O-methyl-Neu5Ac2en” (Bioorg Med Chem Lett, 2009).

This experiment in a line: Inhibition of Tamiflu-resistant Influenza A virus (A/Yokohama/67/2006 (H1N1)) sialidase.

In the case of `CC(=O)N[C@H]1[C@H]([C@H](O)[C@H](O)CO)OC(C(=O)O)=C[C@@H]1NC(=N)N` [ZANAMIVIR], half-maximal inhibition (IC50) was put at 3.05 nM. On to `CO[C@@H]([C@@H]1OC(C(=O)O)=C[C@H](NC(=N)N)[C@H]1NC(C)=O)[C@H](O)CO` [LANINAMIVIR], for which the IC50 (usually the concentration that inhibits the measured activity by half) amounted to 5.62 nM.
